This is an account of results in PubChem BioAssay (NCI).

Where “and” joins values, the source holds several entries; their conditions need not be identical. Equal values may be shown once.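 Protocol summary: plate cells (96-well), add compound at 5 concentrations, incubate 48 h, interpolate endpoints linearly. GI50: concentration for 50% inhibition of growth. The concentration for full growth arrest is given as TGI.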

Holding throughout (assay): NCI-60 cell line screen, 48 h
The subject of test [1] is EKVX NSCLC.
Test [2] concerns NCI-H226 lung.
In test [3] the test system is SF-539 CNS.
Test [4] relates to SNB-19 CNS.
In test [5] the test system is ACHN renal.
In test [6] the test system is SNB-75 CNS.
In test [7] the test system is KM12 colon.
For test [8], the system named is NCI-H23 lung.
In test [9] the test system is NCI/ADR-RES ovarian.

In the case of `COc1cc([C@H]2c3cc4c(cc3[C@H](NCc3ccc(F)cc3)C3COC(=O)[C@H]32)OCO4)cc(OC)c1O` (some centres not stated), the TGI in [1] was found to be 28.8 µM; in test [2], 7.61 µM; in test [3], 5.07 µM; in [4] it was 51.2 µM; in [5], 4.34 µM; in test [6], 9.16 µM. The TGI in test [7] came to 15.1 µM; in test [8] it was 6.34 µM.
Take `Cc1cc2nc3c(C(OC4OC(CO)C(O)C(O)C4O)C(O)CO)nn(-c4ccc(F)cc4)c3nc2cc1C` (configuration not stated): the TGI in [1], in [3], in test [4], in [5], in test [6] and in [7] was greater than 100 µM in each case. In test [8], the TGI was greater than 100 µM.
Take `O=C1Cc2c([nH]c3ccccc23)-c2cc(Br)ccc2N1`: the TGI in test [1], in test [2], in test [3], in [4], in [5] and in test [6] was greater than 100 µM in each case. Also, the TGI in test [7] and in test [8] was greater than 100 µM each time.
Turning to `CCOc1ccccc1NC(=O)C1=C(C)NC(C)=C(C(=O)Nc2ccccc2OCC)C1c1ccc2c(c1)OCO2`, the TGI in test [1] was greater than 100 µM; in test [2], greater than 100 µM; in [3], 84.7 µM; in test [4], greater than 100 µM; in [5], greater than 100 µM; in [6], 35.3 µM. In addition, the TGI in test [7] is 50.7 µM; in [8], greater than 100 µM.
For `COc1ccc(/C(C#N)=C2/O/C(=N/N)C(c3ccc(OC)c(OC)c3)C2=O)cc1OC` (configuration not stated), the TGI in test [1], in test [2], in test [3], in [5], in [6] and in [7] was greater than 100 µM throughout. The TGI in test [8] is greater than 100 µM.
Regarding `NC(=O)C1C(=O)Oc2cccnc21` (configuration not stated), the TGI in test [1], in test [2], in test [3], in [4], in test [5] and in test [6] was greater than 100 µM each time. In addition, the TGI in [7] and in [8] was greater than 100 µM each time.
Regarding `CN(C)CN(C)c1nc(N(C)C)nc(N(C)C)n1`, the TGI in [1], in test [3], in [4], in test [5], in [6] and in [7] was greater than 100 µM each time. The molecule further registered a TGI in test [8] greater than 100 µM.
Regarding `O=C(O)c1cc2ccc(Cl)cc2c(O)c1C1=CCCCC1`, the TGI in [1] was greater than 100 µM; in test [2] it was 68.3 µM; in [3], greater than 100 µM; in test [4] it was greater than 100 µM; in test [5], greater than 100 µM; in [6], 34.7 µM. Moreover, the TGI was greater than 100 µM in test [7] and 95.9 µM in [8].
Take `COc1ccc(C2C(C(=O)O)=C(COC(C)=O)Oc3cc4c(cc32)OCO4)c(OC)c1` (configuration not stated): the TGI in test [1], in test [3], in test [4], in test [5], in test [6] and in test [8] was greater than 100 µM each time.
Regarding `c1ccc2c(c1)n1nnnc1c1nnnn21`, the TGI in [1] was greater than 100 µM; in [2] it was greater than 100 µM; in test [3], greater than 100 µM; in test [4], greater than 100 µM; in [5], greater than 100 µM; in [6], 84.3 µM. Further, the TGI in test [7] and in test [8] was greater than 100 µM each time.
Take `CCOC(=O)C(=O)Nc1nc2ccc(OC)cc2s1`: the TGI in test [1], in [2], in test [3], in [4], in test [5] and in test [6] was greater than 100 µM throughout. For the same molecule, the TGI in test [7] and in test [8] was greater than 100 µM each time.
As to `Cc1c(C(=O)/C=C/c2ccc3c(c2)OCO3)[n+](=O)c2ccccc2n1[O-]`, the TGI in [1] was 69.3 µM; in [2], 60.9 µM; in test [3], 49.3 µM; in test [4], greater than 100 µM; in test [5] it was greater than 100 µM; in test [6], 68.6 µM. In addition, the results for the TGI in test [7] and in test [8] were 90.5 µM and 42.4 µM, respectively.
For the molecule `Nc1cccc(C(=O)/C=C/c2ccccc2O)c1`, the TGI in [1], in test [2], in test [3], in [4], in test [5] and in test [6] was greater than 100 µM in each case. The TGI in [7] and in test [8] was greater than 100 µM each time.
Take `O=C(Cn1ccnc1[N+](=O)[O-])NCc1ccc(F)cc1`: the TGI in [1], in test [2], in [3], in [4], in test [5] and in [6] was greater than 100 µM in each case. Besides, the TGI in [7] and in [8] was greater than 100 µM each time.
In the case of `CNC(=O)N(CCCCC(NC(C)=O)C(=O)NCc1ccccc1)Cc1ccccc1` (configuration not stated), the TGI in test [1], in test [2], in [3], in test [4], in [5] and in [6] was greater than 100 µM each time. Moreover, the TGI in test [7] and in [8] was greater than 100 µM in each case.
Turning to `Cc1cccc(NC(=O)CSc2nnc(-c3ccc(N=Cc4ccc(Cl)cc4)cc3)o2)c1`, the TGI in [1], in test [2], in test [4], in [5], in [6] and in test [7] was greater than 100 µM in each case. In addition, in test [8], the TGI is greater than 100 µM.
In the case of `CCOC(=O)c1cnc2c(ccc3ncccc32)c1OCC`, the TGI in test [1], in test [2], in [3], in [4], in test [5] and in test [6] was greater than 100 µM in each case. For the same molecule, the TGI in test [7] and in test [8] was greater than 100 µM throughout.
For `COc1ccc(S(=O)(=O)NNS(C)(=O)=O)cc1OC`, the TGI in [1], in test [2], in [3], in [4], in test [5] and in [6] was greater than 100 µM in each case. The TGI in test [7] and in test [8] was greater than 100 µM each time.
On to `CCOc1ccc(N=Nc2c(-c3ccccc3)nn(C(=O)CC(=O)Nc3ccccc3Cl)c2-c2ccccc2)cc1`, for which the TGI in [1] is greater than 100 µM; in [2], greater than 100 µM; in test [3], greater than 100 µM; in test [4], greater than 100 µM; in test [5], greater than 100 µM; in test [6] it was 90.6 µM. The TGI in [7] and in [8] was greater than 100 µM throughout.
`COc1cc(COC(=O)N(C)[C@@H](Cc2ccccc2)C(=O)O)c([N+](=O)[O-])cc1OC`: the TGI in [1], in test [9], in test [2], in test [3], in test [4] and in test [5] was greater than 100 µM in each case. Moreover, the TGI in test [6], in test [7] and in test [8] was greater than 100 µM in each case.
Take `COc1cc2ccc(CC(=O)O)cc2cc1OC`: the TGI in test [1], in test [2], in test [4], in test [5], in test [6] and in [7] was greater than 100 µM throughout. Besides, the TGI in test [8] was greater than 100 µM.
Regarding `CN(C)CCC(/C=C/c1ccccc1)=N\Nc1c(F)c(F)c(F)c(F)c1F`, the TGI in [1], in test [3], in test [4], in [5], in [6] and in [7] was greater than 100 µM throughout. The TGI in test [8] is greater than 100 µM.
Consider `Cc1ccccc1NC(=O)C(=O)CC(=O)c1sc(-n2nc(-c3ccccc3)cc2-c2ccccc2)nc1C`, for which the TGI in [1], in test [2], in test [3], in test [4], in test [5] and in test [6] was greater than 100 µM in each case. The TGI in [7] and in test [8] was greater than 100 µM in each case.
Take `O=C(Nc1c(Cl)cc([N+](=O)[O-])cc1Cl)C(=O)C(C(=O)c1ccncc1)C1OC(=O)c2ccccc21` (configuration not stated): the TGI in [1], in [2], in [4], in [5], in [6] and in test [7] was greater than 100 µM each time. In [8], the TGI is greater than 100 µM.
On to `CC1(O)CC2C(CC1SCc1ccccc1)C2(C)C` (configuration not stated), for which the TGI in test [1] was 77.3 µM and 31.7 µM; in test [2], 42.5 µM and 30.1 µM; in test [3] it was 60.2 µM and 33.4 µM; in test [4], > 100 µM and 30.7 µM; in test [5], 34.5 µM and 30.4 µM; in test [6] it was 92.4 µM and 28.6 µM. In addition, the TGI in test [7] was 50.8 µM and 34.6 µM; in [8], 58.5 µM and 27.4 µM. Also, the GI50 in test [4] was 45.2 µM and 16.7 µM; in test [6] it was 33.8 µM and 15.3 µM.
Consider `CC[C@]1(O)C[C@@H]2CN(CCc3c([nH]c4ccccc34)[C@@](C(=O)OC)(c3cc4c(cc3OC)N(C)[C@H]3[C@@](O)(C(=O)OC)[C@H](OC(=O)CCCBr)[C@]5(CC)C=CCN6CC[C@]43[C@@H]65)C2)C1`, for which the GI50 in test [1] is 0.336 µM; in [9], 0.986 µM; in test [2] it was 5.87 µM; in [4], less than 0.0215 µM; in [5], 0.108 µM; in test [6], less than 0.01 µM. Also, the GI50 in test [7] is less than 0.0163 µM; in test [8], less than 0.0204 µM. For the same molecule, the TGI in [1] was greater than 100 µM; in test [9] it was greater than 100 µM; in test [2], 99.7 µM; in [4] it was greater than 100 µM; in test [5], greater than 100 µM; in [6] it was less than 0.01 µM. For the same molecule, the TGI is 3.84 µM in test [7] and greater than 100 µM in [8].
Regarding `COc1cc2c(c(OC)c1OC)-c1ccc(SC)c(=O)cc1C(CC(=O)Oc1ccccc1F)C2` (configuration not stated), the TGI in test [2] was 0.444 µM; in test [4], greater than 7.5 µM; in test [5] it was greater than 7.5 µM; in [6], greater than 7.5 µM; in [7] it was 0.0493 µM; in test [8], 0.0894 µM.
`Cc1cc(N(CCC#N)CCC#N)ccc1/C=C1N=C(/C=C\c2ccccc2)N(c2ccc(C(=O)O)cc2)C\1=O`: the TGI in test [2], in [3], in test [4], in test [5], in [6] and in test [7] was greater than 100 µM throughout. Besides, the TGI in test [8] was greater than 100 µM.
`NC(=O)N1N=C2c3ccccc3OC[C@H]2[C@@H]1c1ccccc1`: the TGI was greater than 100 µM in test [1]; 74.7 µM in [2]; 19.1 µM in test [3]; greater than 100 µM in test [4]; greater than 100 µM in test [5]; greater than 91.7 µM in test [6]. Also, the TGI in test [7] is 16.6 µM; in test [8], greater than 92.4 µM.
With `COC(=O)C1C(=O)NC2(C)CC1c1ccccc1O2` (configuration not stated), the TGI in test [2], in test [3], in test [4], in test [5], in test [6] and in test [7] was greater than 100 µM in each case. Also, in test [8], the TGI was greater than 100 µM.
Take `O=C(CC/C(CC(=O)c1ccc(Cl)cc1)=N\O)Nc1cccc(Cl)c1`: the TGI in test [1], in [3], in test [4], in test [5], in test [6] and in test [7] was greater than 100 µM each time. In test [8], the TGI was greater than 100 µM.
As for `Cc1ccc(-n2cc(/C(N)=N/O)c3ccccc3c2=O)cc1`, the TGI in [1], in test [2], in test [3], in test [4], in [5] and in test [7] was greater than 100 µM in each case. Moreover, in test [8], the TGI is greater than 100 µM.
